13 compounds from ChEMBL document CHEMBL4177597, “A series of novel indazole derivatives of Sirt 1 activator as osteogenic regulators” (Bioorg Med Chem Lett, 2017) can be followed below.

The target of series [1] is T1, NAD-dependent protein deacetylase sirtuin-1 (Homo sapiens) (UniProt Q96EB6).
T1 sequence (whole entry): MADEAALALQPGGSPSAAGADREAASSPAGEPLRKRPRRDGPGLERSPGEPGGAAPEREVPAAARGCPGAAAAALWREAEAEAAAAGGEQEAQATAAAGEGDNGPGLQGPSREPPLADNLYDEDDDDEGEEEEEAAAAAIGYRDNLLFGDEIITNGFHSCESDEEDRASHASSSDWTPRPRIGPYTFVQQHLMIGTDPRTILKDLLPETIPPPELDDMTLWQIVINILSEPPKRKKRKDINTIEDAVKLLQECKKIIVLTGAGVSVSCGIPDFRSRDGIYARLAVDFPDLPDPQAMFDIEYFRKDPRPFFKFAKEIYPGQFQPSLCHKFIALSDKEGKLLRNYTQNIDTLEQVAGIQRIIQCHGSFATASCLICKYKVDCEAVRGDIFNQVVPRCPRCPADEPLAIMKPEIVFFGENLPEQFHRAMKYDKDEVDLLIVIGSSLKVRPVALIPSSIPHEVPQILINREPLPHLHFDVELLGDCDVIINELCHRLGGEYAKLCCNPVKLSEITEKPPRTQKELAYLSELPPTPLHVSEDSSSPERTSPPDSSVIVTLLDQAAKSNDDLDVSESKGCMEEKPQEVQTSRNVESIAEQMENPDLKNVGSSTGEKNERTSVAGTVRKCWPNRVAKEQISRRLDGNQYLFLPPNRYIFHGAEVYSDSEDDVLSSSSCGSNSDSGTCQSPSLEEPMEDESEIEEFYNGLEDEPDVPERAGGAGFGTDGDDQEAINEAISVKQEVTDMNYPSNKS
The experiment in a line: Activation of SIRT1 (unknown origin) by mass spectrophotometric analysis.

The nature of series [2]: Octanol-water apparent partition coefficient, log D of the compound at pH 7.4 after 24 hrs by shake flask method. The class given is physicochemical.
In series [3] the target is T1, NAD-dependent protein deacetylase sirtuin-1 (Homo sapiens). Kind of series: Activation of SIRT1 in human U2OS cells assessed as increase in deacetylation of doxorubicin-induced acetylated p53 at 0.01 to 1 uM by Western blot analysis. In kind it is cell-based.
Series [4] shares this target. Kind of series: Activation of SIRT1 in human U2OS cells assessed as increase in ALP activity using p-NPP as substrate measured after 30 mins by colorimetric method. In kind it is cell-based.

The structures appear in SMILES notation. The source made the active and inactive calls. The calls are words filed in the database; no cut-off is given here.

Take `CCCS(=O)(=O)c1ccccc1CNc1ccc2c(c1)c(-c1ccc(C(=O)N[C@H]3CC[C@H](O)CC3)cc1)nn2C`: the EC150 in series [1] stood at 4.54 µM.
Turning to `Cc1cc(S(C)(=O)=O)c(CNc2ccc3c(c2)c(-c2ccc(C(=O)N[C@H]4CC[C@H](O)CC4)cc2)nn3C)cc1F`, in series [1], the EC150 was determined as 0.4 µM. For the same compound, in series [2], the logD (in general, the decadic logarithm of the distribution of all forms, ionised or not, between an organic phase and buffer at a given pH) at 24 h stood at 1.41.
Consider `Cn1nc(-c2cnc3ccccc3c2)c2cc(NCc3cc(F)ccc3S(C)(=O)=O)ccc21`, for which the EC150 in series [1] came to 1.49 µM.
Regarding `Cc1cc(CNc2ccc3c(c2)c(-c2ccc(C(=O)N[C@H]4CC[C@H](O)CC4)cc2)nn3C)c(S(C)(=O)=O)cc1F`, the EC150 in series [1] is greater than 20 µM.
Regarding `Cn1nc(-c2ccc3ccccc3c2)c2cc(NCc3cc(F)ccc3S(C)(=O)=O)ccc21`, in series [1], the EC150 came to 2.88 µM.
On the same count and under the same terms, as for `COCCS(=O)(=O)c1ccccc1CNc1ccc2c(c1)c(-c1ccc(C(=O)N[C@H]3CC[C@H](O)CC3)cc1)nn2C`, the figure is 7.23 µM.
As for `CNC(=O)c1ccc(-c2nn(C)c3ccc(NCc4cc(F)ccc4S(C)(=O)=O)cc23)cc1`, in series [1], the EC150 came out at 2.92 µM.
The compound `Cn1nc(-c2ccc(C(=O)N[C@H]3CC[C@H](O)CC3)cc2)c2cc(NCc3cc(F)ccc3S(C)(=O)=O)ccc21` gave an EC150 in series [1] of 0.95 µM.
Take `Cn1nc(-c2ccc(C(=O)NCC3CCCO3)cc2)c2cc(NCc3cc(F)ccc3S(C)(=O)=O)ccc21` (configuration not stated): in series [1], the EC150 turned out to be 1.46 µM.
For the compound `Cn1nc(-c2cc3ccccc3s2)c2cc(NCc3cc(F)ccc3S(C)(=O)=O)ccc21`, in series [1], the EC150 came to 1.52 µM.
Still for that read-out and setting: as for `Cn1nc(-c2ccc(C(=O)NCCc3ccn[nH]3)cc2)c2cc(NCc3cc(F)ccc3S(C)(=O)=O)ccc21`, the figure is 1.36 µM.
Consider `Cn1nc(-c2ccc(C(=O)N[C@H]3CC[C@H](O)CC3)cc2)c2cc(NCc3cc(F)c(F)cc3S(C)(=O)=O)ccc21`, for which the EC150 in series [1] turned out to be 0.4 µM. The logD at 24 h in series [2] was 1.37. Also, the result in series [3] was Active. In addition, in series [4], the EC30 (as a rule, the point of the concentration-response curve where the effect stands at 30%) is 0.65 nM.
Compound `CCS(=O)(=O)c1ccccc1CNc1ccc2c(c1)c(-c1ccc(C(=O)N[C@H]3CC[C@H](O)CC3)cc1)nn2C` yielded an EC150 in series [1] of 2.4 µM.
